The conditions of series [1]: cited from earlier work.
For series [2] the following is noted: cited from earlier work; for Biological half-life (h): in vivo.
The test system of the next series is HepG2–C3A spheroids. The procedure:
Three hundred 21-day old spheroids (corresponding to ~25 million cells or 3.5 mg protein) were gently pipetted (using a cut-tip) into each 10 ml bioreactor before treatment to provide ample material for analysis. To initiate drug treatment, the bioreactor rotation was stopped for 30 s to allow the spheroids to settle to the bottom of the bioreactor. […] Each narrow range experiment was carried out in duplicate and ATP was measured in technical triplicates for each sample. […] Data were normalized to the vehicle-treated control. Error bars in the figures show standard deviation.
Cell viability was measured based on their ability to produce ATP [37]. […] The cells were then lysed with 100 μl of lysis buffer (CellTiter-Glo luminescent cell viability assay, Promega, Fitchburg, WI, Cat. no. G7571) and shaken in the dark for 20 min. Before the luminescence was measured in a FluoStar OPTIMA (BMG Labtech, Ortenberg, Germany) using the following parameters: one kinetic window, 10 measurement cycles with 0.3 s of measurement interval time, 2-s delay per measurement, additional 0.5-s delay per position change (repeated twice for each measured plate). Replicates were performed as described under the ‘Drug treatment’ Section. The data were normalized with reference to a standard curve for ATP and to the untreated control.

Details of series [3]: method as in PMID 22407198, PMID 12889529. The settings on record: therapeutic dose 4 g/day; cited from earlier work.
The conditions of series [4]: cited from earlier work. The source holds these as a separate data set.
The test system of the next series is HepG2/C3A spheroids. Further details: method as in earlier work. As to conditions: cited from earlier work.

In the case of `O=C(O)Cc1ccccc1Nc1c(Cl)cccc1Cl` [Diclofenac], the “effectiveness as an anti-inflammatory agent compared with other non-steroidal anti-inflammatory drugs” value in series [1] was 3-1000 ×. The “Biological half-life (h)” value in series [2] is listed as 1–2 h.
As to `CN(C)C(=N)N=C(N)N` [Metformin], in the series with HepG2–C3A spheroids (5 mg/mg (highest dose), glucose medium), the “reduction in ATP production” value is 70%.
On to `CC(=O)Nc1ccc(O)cc1` [Paracetamol], for which, in series [3], the blood concentration is 10000 to 25000 ng/mL. Moreover, in series [4], the “Toxic dose, μg/ml in blood” value is 100 to 150 µg/mL. Also, in series [2], the “Biological half-life (h)” value is 2–4 h. Also, in the series with HepG2–C3A spheroids (four treatments at 48-h intervals killed the spheroids, relative to 20 mg paracetamol per mg protein), the chronically lethal dose is given as “Half of this dose”. In the series with HepG2–C3A spheroids (glucose medium), the acutely lethal dose is on record as 20 mg paracetamol per mg protein.
For orientation: half-life means how long it takes for the measured level to halve. Take `[H]/N=C(/N)N/C(=N/[H])NCCc1ccccc1` [Phenformin]: in series [2], the half-life is 7 h and the “Biological half-life (h)” value is 4–13 h.
For `CCCC(CCC)C(=O)O` [VPA, valproic acid], in the series on HepG2/C3A spheroids, the acute toxicity threshold is given as 20 mg VPA per mg protein and the chronic toxicity threshold is on record as 4 mg VPA per mg protein. For the same molecule, the “Toxic dose, μg/ml in blood” value in series [4] is 40 to 100 µg/mL. Also, in series [2], the “Biological half-life (h)” value is 10–20 h.

(Values after article PMC7467243, “Response to and recovery from treatment in human liver-mimetic clinostat spheroids: a model for assessing repeated-dose drug toxicity” (Toxicology Research, 2020).)
